Measured values published in patent US12350403B2, “Methods of making therapeutic polymeric material” (priority 2015, dated 2025).
Values after ≈ are worked out from the molar mass of the structure shown.

Experiments:
[1] = value used for minimum release rate; cited from earlier work
[2] = human hip, assumed; cited from earlier work
[3] = UV-Vis spectra of vancomycin eluted from unirradiated and irradiated blend; assay type: physicochemical; conditions: blended in the polymeric material, with and without terminal irradiation
Experimental: Vancomycin HCl-blended UHMWPE was prepared with a concentration of 6 wt % vancomycin as described in Example 3. Consolidation was performed at 170° C. for 10 min at 20 MPa. The platens were then cooled down with air down to approximately 162° C. and then cooled down with water starting at approximately 156° C. down to about room temperature to obtain an approximately 3 mm-thick puck (approximately 10.5 mm diameter). Consolidated vancomycin-blended samples (VPE) were then either used as is or gamma irradiated at 100 kGy. UHMWPE without additives was used as control. In vitro elution of samples in all three groups was conducted in phosphate buffered saline (PBS) as described in Example 3. After no detectable vancomycin could be measured through UV-Vis, the presence of vancomycin grafted onto the surface of the polymer was determined by labeling with an anti-vancomycin antibody.

[4] = cited from earlier work
[5] = test system: Xen 29; conditions: cited from earlier work
[6] = test system: Xen 29; test: Minimum inhibitory concentration against Xen 29; assay type: cell-based, S. aureus; conditions: Staphylococcus aureus, 29, read-out: Minimum inhibitory concentration of rifampin against Xen 29

Row | SMILES | minimum inhibitory concentration [1] [µg/mL] | approximate clearance half-life from the joint space [2] [h] | effect of irradiation on vancomycin (UV absorbance of eluted vancomycin) [3] | share of intravenous antibiotic that penetrates bone [4] | Minimum inhibitory concentration of vancomycin against Xen 29 [5] [µg/mL] | MIC [6] [µg/mL]
1 | CN[C@H](CC(C)C)C(=O)N[C@H]1C(=O)N[C@@H](CC(N)=O)C(=O)N[C@H]2C(=O)N[C@H]3C(=O)N[C@H](C(=O)N[C@H](C(=O)O)c4cc(O)cc(O)c4-c4cc3ccc4O)[C@H](O)c3ccc(c(Cl)c3)Oc3cc2cc(c3O[C@@H]2O[C@H](CO)[C@@H](O)[C@H](O)[C@H]2O[C@H]2C[C@](C)(N)[C@H](O)[C@H](C)O2)Oc2ccc(cc2Cl)[C@H]1O [vancomycin] | 2 (≈ 1.38 µM) | ~3.5 | not affected by irradiation | 5-20% | 1 | 
2 | CO/N=C(\C(=O)N[C@@H]1C(=O)N2C(C(=O)O)=C(CSc3nc(=O)c(=O)[nH]n3C)CS[C@H]12)c1csc(N)n1 [ceftriaxone] |  |  |  | 5-19% |  | 
3 | Cc1nnc(SCC2=C(C(=O)O)N3C(=O)[C@@H](NC(=O)Cn4cnnn4)[C@H]3SC2)s1 [cefazolin] |  |  |  | 7-15% |  | 
4 | CO[C@H]1/C=C/O[C@@]2(C)Oc3c(C)c(O)c4c(O)c(c(/C=N/N5CCN(C)CC5)c(O)c4c3C2=O)NC(=O)/C(C)=C\C=C\[C@H](C)[C@H](O)[C@@H](C)[C@@H](O)[C@@H](C)[C@H](OC(C)=O)[C@@H]1C [rifampin] | 1 (≈ 1.22 µM) |  |  |  |  | 0.01 (≈ 0.0122 µM)
